IC50 data for one compound are collected here from patent US10973840B2, “Methods of sensitizing tumor cells to weak base chemotherapeutic drugs” (SOCPRA SCIENCES SANTÉ ET HUMAINES S.E.C., priority 2017, dated 2021).

The assay relates to HT1080 cancer cell line. Briefly: MTT assay, doxorubicin with C2 or C2WY→AA peptide. It counts as cell-based. As to conditions: Homo sapiens. The protocol: The IC50 (half-maximal inhibitory concentration) values of doxorubicin for HT1080 cancer cell line treated with the C2 peptide ([…] (SEQ ID NO: 7)) or the C2WY→AA peptide ([…] (SEQ ID NO: 60)) were determined in normoxia or hypoxia.
Cells (5×10^3) were cultured in 96-well plates and preincubated under 21% O2 or 1% O2 for 4 h following the addition of doxorubicin (dose response from 10^−1 to 10^5 nM) in the presence or absence of C2 and C2WY→AA peptides (SEQ ID NOs: 7 and 60) for 72 h. Cell viability was measured using the MTT dye (Life Technologies) according to the manufacturer's instructions. Because hypoxic conditions may affect the reduction of MTT to formazan, incubation of all cell cultures with MTT were performed under normoxic conditions. Each experiment was performed in triplicate. Log-scale dose-response data were plotted on a graph and a three-parameter nonlinear regression was applied to determine IC50 values. Data are presented as the mean (nM).
(Formazan colour is commonly taken as a measure of viable cells.)

One may read the IC50 as the concentration needed to halve the response being measured. Higher therefore signals weaker potency. For the compound `COc1cccc2c1C(=O)c1c(O)c3c(c(O)c1C2=O)C[C@@](O)(C(=O)CO)C[C@@H]3O[C@H]1C[C@H](N)[C@H](O)[C@H](C)O1` [Dox, doxorubicin], the IC50 by setting is: (HT-1080, Experiment 1, peptide: Vehicle, 1% O2) 83.8 nM; (HT-1080, Experiment 1, peptide: Vehicle, 21% O2) 16 nM; (HT-1080, Experiment 1, with C2 0.25 μM, 1% O2) 39.7 nM; (HT-1080, Experiment 1, with C2 0.25 μM, 21% O2) 12.2 nM; (HT-1080, Experiment 1, with C2 5.00 μM, 1% O2) 39.1 nM; (HT-1080, Experiment 1, with C2 5.00 μM, 21% O2) 17.2 nM. The half-maximal inhibitory concentration (IC50) reads like this: (HT-1080, Experiment 1, with C2WY→AA 0.25 μM, 1% O2) 99.1 nM; (HT-1080, Experiment 1, with C2WY→AA 0.25 μM, 21% O2) 21.3 nM; (HT-1080, Experiment 1, with C2WY→AA 5.00 μM, 1% O2) 76.4 nM; (HT-1080, Experiment 1, with C2WY→AA 5.00 μM, 21% O2) 16.4 nM; (HT-1080, Experiment 2, peptide: Vehicle, 1% O2) 70 nM; (HT-1080, Experiment 2, peptide: Vehicle, 21% O2) 13.4 nM. For the same compound, the IC50 worked out at 30.6 nM (HT-1080, Experiment 2, with C2 0.25 μM, 1% O2); 11.7 nM (HT-1080, Experiment 2, with C2 0.25 μM, 21% O2); 15.7 nM (HT-1080, Experiment 2, with C2 20.0 μM, 1% O2); 10 nM (HT-1080, Experiment 2, with C2 20.0 μM, 21% O2); 98.9 nM (HT-1080, Experiment 2, with C2WY→AA 0.25 μM, 1% O2); 12.5 nM (HT-1080, Experiment 2, with C2WY→AA 0.25 μM, 21% O2). Moreover, the IC50 reads like this: (HT-1080, Experiment 2, with C2WY→AA 20.0 μM, 1% O2) 74.3 nM; (HT-1080, Experiment 2, with C2WY→AA 20.0 μM, 21% O2) 10.9 nM.
